Test [1] deals with T1, Tyrosine-protein phosphatase non-receptor type 1 (Homo sapiens, UniProt P18031).
T1 sequence (P18031 whole entry): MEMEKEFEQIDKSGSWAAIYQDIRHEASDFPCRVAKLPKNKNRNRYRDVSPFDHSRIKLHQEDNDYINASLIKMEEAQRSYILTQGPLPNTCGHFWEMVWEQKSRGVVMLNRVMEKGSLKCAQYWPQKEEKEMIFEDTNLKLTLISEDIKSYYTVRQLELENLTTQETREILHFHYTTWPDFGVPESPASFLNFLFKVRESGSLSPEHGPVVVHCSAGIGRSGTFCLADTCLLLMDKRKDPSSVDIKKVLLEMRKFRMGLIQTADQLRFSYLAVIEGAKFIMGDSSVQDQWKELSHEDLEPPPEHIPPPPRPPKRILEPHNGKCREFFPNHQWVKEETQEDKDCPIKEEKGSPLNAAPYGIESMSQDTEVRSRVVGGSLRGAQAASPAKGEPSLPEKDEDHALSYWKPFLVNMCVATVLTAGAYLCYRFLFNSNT
In words: Inhibition of N-terminal GST tagged recombinant human PTP1B catalytic domain (1 to 321 residues) expressed in Escherichia coli using pNPP as substrate preincubated for 10 mins followed by substrate addition and measured every 5 mins for 30 mins.

Test [2] deals with T1, Tyrosine-protein phosphatase non-receptor type 1. The experiment in a line: Competitive inhibition of N-terminal GST-tagged recombinant human PTP1B catalytic domain (1 to 321 residues) expressed in Escherichia coli assessed as inhibitory constant using pNPP as substrate preincubated for 10 mins followed by incubation with substrate for 30 mins and measured every 5 mins for 30 mins by Lineweaver-burk plot based Dixon plot analysis.

Test [3] has as its target T2, Tyrosine-protein phosphatase non-receptor type 1 (Homo sapiens) (UniProt P18031).
T2 sequence (whole entry): T1 sequence (P18031 whole entry)
The experiment in a line: Ratio of kinetic constant Kik to Kiv at N-terminal GST-tagged recombinant human PTP1B catalytic domain (1 to 321 residues) expressed in Escherichia coli using pNPP as substrate preincubated for 10 mins followed by incubation with substrate for 30 mins and measured every 5 mins for 30 mins by Lineweaver-burk plot analysis.

The IC50 is the midpoint of a concentration-inhibition curve. As a reminder, the Ki is a dissociation constant, usually derived from enzyme kinetics or from competition with a known ligand.

Regarding `COC(=O)C1=C(C)C[C@@H](O)[C@@H]1CCO`, the IC50 in test [1] is greater than 80 µM. On the same count and under the same terms, then `COC(=O)C1=CO[C@@]2(C)C[C@@H](O)[C@H]1[C@@H]2CO`, with 22.2 µM; and `COC(=O)[C@@H](CO)[C@@H]1C(CO)=C(C)C[C@H]1O`, with greater than 80 µM. With `CC1=C2COC(=O)[C@@H](CO)[C@H]2[C@H](O)C1`, the IC50 in test [1] worked out at 8.9 µM. Also, in test [2], the Ki is 2.57 µM. Further, the Ratio in test [3] was 6.86 to 37.6. Turning to `CC1=C(CO)[C@@H](CCO)[C@H](O)C1`, the IC50 in test [1] is greater than 80 µM. In the case of `COC(=O)[C@H](CO)[C@@H]1C(CO)=C(C)C[C@H]1O`, the concentration for half-maximal inhibition (IC50) in test [1] was greater than 80 µM. Regarding `COC(=O)C1=C(C)C[C@@H](O)[C@@H]1[C@H](CO)C(=O)OC`, the concentration for half-maximal inhibition (IC50) in test [1] was greater than 80 µM. Take `CC1=C[C@@H](O)[C@@H]2[C@@H](CO)C(=O)O[C@]12CO`: the IC50 in test [1] stood at 43.6 µM. The same measure, in the same setting: then `COC(=O)[C@H]1COC(=O)C2=C(C)C[C@@H](O)[C@@H]21`, with greater than 80 µM; and `CC1=C2C(=O)OCC[C@H]2[C@H](O)C1`, with greater than 80 µM.

In the case of `CC1=C2COC(=O)[C@H](CO)[C@H]2[C@H](O)C1`, the IC50 in test [1] came out at 9.8 µM. In addition, the Ki in test [2] was found to be 4.13 µM. Further, in test [3], the Ratio was in the range of 6.86 to 37.6.
